Assay results taken from US9156790B2, “Anticancer P21-activated kinase inhibitors” (Ohio State Innovation Foundation, priority 2013, dated 2015).
Read-outs that look alike come from different tables or passages of the source.

What was measured:
BCPAP cells = assay: MTT cell viability assay, BCPAP; type: cell-based, Human; settings: Homo sapiens, BCPAP, 72-hours of exposure, 1% FBS, mean±standard deviation (n=3), read-out: IC50 for reducing viability of BCPAP cells versus DMSO control
From the text: (§1) Human thyroid cancer BCPAP, TPC1, and FTC133 cell lines were the generous gifts of Drs. Rebecca Schweppe and Bryan Haugen (University of Colorado Denver) (Schweppe et al., The Journal of clinical endocrinology and metabolism 83:4331-4341 (2008)) with permission from the following originating laboratories: BCPAP—Dr. Fabien, Centre Hospitalier Lyon-Sud, France (Fabien et al., Cancer 73:2206-2212 (1994)); TPC1—Dr. Sato, Kanazawa University, Japan (Tanaka et al., Virology 161:62-411 (1987)); and FTC133—Dr. Goretzki, University of Leipzig, Germany (Goretzki et al., Recent Results Cancer Res 118:48-63 (1990)). The obtained cell lines were confirmed for identity by DNA fingerprinting. BCPAP was grown in RPMI 1640 medium (Life Technologies Co., Carlsbad, Calif.) while FTC133 and TPC1 were grown in DMEM (Life Technologies Co.), both supplemented with 10% fetal bovine serum (FBS) and NEAA unless as noted for experiments.
(§2) The effect of OSU-03012 and its derivatives on cell viability was assessed by using the 3-(4,5-dimethylthiazol-2-yl)-2,5-diphenyl-2H-tetrazolium bromide (MTT) assay. Three replicates were performed in each individual experiment, and experiments were repeated at least three separate times. Cells were grown in 96-well plates for 24 hours and were exposed to various concentrations of drugs dissolved in DMSO (final concentration 0.1%) in RPMI 1640 or DMEM containing 1% FBS for 72 hours. 10 μL of 0.5 mg/ml MTT was added to each well and cells were incubated in CO2 at 37° C. for 2 hours. Supernatants were removed from the wells, the reduced MTT dye was solubilized in 100 μL of solution C (12 ml of 1N HCl in 300 mL of isopropanol), and absorbance at 570 nm was determined on a microplate reader.
(§3) We assessed the ability of the compounds to reduce cell viability in vitro by MTT assay after 72 hours of continuous exposure. Results are shown in Table 1 and are depicted as the IC50 vs. simultaneously performed DMSO control.
(§4) ^aThe reported IC50 values are concentrations at which BCPAP, FTC133 and TPC1 cell viability by MTT assays 50% of DMSO control after 72-hours of exposure. Data are presented as mean±standard deviation (n=3). PAK and PDK1 Selectivity In Vivo

TPC1 cells = assay: MTT cell viability assay, TPC1; type: cell-based, Human; settings: Homo sapiens, TPC1, 72-hours of exposure, 1% FBS, mean±standard deviation (n=3), read-out: IC50 for reducing viability of TPC1 cells versus DMSO control
From the text: as §1, §2, §3, §4

CaMKI = CaMKI (Homo sapiens, UniProt Q14012); assay: Kinase profiling panel: CaMKI; type: biochemical; settings: 5 μM compound; average of triplicate
CaMKI, sequence (Q14012 whole entry, species assumed): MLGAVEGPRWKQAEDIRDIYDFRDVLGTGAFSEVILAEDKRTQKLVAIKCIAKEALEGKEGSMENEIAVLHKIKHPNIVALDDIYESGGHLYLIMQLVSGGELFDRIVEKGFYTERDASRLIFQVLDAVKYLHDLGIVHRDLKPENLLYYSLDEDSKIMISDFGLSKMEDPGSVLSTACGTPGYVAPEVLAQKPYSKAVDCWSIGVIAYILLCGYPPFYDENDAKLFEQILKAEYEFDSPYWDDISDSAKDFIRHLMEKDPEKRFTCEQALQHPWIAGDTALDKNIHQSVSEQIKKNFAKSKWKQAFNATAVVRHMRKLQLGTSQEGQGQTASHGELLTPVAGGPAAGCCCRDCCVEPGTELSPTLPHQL
Experimental: (§5) To further probe the selectivity of the compounds 4 and 15, they were subjected for kinase profiling service for screening against a panel of other kinases selected based on the kinase tree at 5 μM concentration, at or above the IC50 for the two compounds versus PAK in both in vitro and cell-based assays. […] PAK1 was not available for testing using this system thus it was not possible to compare directly in this assay system.

CHK1 = CHK1 (Homo sapiens, UniProt O14757); assay: Kinase profiling panel: CHK1; type: biochemical; settings: 5 μM compound; average of triplicate
CHK1, sequence (O14757 whole entry, species assumed): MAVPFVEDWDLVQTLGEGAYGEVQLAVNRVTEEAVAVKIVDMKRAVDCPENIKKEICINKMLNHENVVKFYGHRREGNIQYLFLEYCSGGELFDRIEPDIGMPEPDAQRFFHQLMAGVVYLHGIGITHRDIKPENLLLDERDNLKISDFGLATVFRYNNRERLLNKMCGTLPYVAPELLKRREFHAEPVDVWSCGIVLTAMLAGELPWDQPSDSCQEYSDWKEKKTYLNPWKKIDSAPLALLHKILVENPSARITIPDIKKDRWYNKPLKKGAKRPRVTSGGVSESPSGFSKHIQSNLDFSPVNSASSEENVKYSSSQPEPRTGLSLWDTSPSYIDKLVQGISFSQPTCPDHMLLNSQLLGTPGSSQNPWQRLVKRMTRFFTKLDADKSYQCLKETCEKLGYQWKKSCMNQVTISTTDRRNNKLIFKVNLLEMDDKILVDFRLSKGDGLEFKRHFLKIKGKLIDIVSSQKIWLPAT
Experimental: as §5

GSK3α = GSK3α (Homo sapiens, UniProt P49840); assay: Kinase profiling panel: GSK3α; type: biochemical; settings: 5 μM compound; average of triplicate
GSK3α, sequence (P49840 whole entry, species assumed): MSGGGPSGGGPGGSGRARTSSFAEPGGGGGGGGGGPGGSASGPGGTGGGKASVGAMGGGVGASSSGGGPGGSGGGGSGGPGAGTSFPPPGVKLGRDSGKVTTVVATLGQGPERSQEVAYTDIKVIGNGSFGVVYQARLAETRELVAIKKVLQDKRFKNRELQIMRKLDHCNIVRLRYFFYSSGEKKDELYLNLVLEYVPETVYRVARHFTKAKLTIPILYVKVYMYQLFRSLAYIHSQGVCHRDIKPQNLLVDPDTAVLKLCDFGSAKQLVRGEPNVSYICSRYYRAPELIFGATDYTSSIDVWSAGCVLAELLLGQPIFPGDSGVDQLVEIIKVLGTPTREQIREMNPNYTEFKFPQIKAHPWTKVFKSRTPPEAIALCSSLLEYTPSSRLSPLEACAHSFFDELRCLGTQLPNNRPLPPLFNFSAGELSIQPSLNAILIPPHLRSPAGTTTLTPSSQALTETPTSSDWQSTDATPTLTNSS
Experimental: as §5

MEK1 = MEK1 (Homo sapiens, UniProt Q02750); assay: Kinase profiling panel: MEK1; type: biochemical; settings: 5 μM compound; average of triplicate
MEK1, sequence (Q02750 whole entry, species assumed): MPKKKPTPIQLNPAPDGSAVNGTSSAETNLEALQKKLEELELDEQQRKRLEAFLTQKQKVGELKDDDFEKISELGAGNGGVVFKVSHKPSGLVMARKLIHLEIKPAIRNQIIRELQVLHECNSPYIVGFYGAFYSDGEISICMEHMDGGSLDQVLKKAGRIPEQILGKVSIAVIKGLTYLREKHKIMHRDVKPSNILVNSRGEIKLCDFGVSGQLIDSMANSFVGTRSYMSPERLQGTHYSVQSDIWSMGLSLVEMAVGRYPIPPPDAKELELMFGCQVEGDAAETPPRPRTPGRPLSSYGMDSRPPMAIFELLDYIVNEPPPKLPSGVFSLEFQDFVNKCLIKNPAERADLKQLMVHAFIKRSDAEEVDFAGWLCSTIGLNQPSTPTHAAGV
Experimental: as §5

Met = Met (Homo sapiens, UniProt P08581); assay: Kinase profiling panel: Met; type: biochemical; settings: 5 μM compound; average of triplicate
Met, sequence (P08581 25-1390): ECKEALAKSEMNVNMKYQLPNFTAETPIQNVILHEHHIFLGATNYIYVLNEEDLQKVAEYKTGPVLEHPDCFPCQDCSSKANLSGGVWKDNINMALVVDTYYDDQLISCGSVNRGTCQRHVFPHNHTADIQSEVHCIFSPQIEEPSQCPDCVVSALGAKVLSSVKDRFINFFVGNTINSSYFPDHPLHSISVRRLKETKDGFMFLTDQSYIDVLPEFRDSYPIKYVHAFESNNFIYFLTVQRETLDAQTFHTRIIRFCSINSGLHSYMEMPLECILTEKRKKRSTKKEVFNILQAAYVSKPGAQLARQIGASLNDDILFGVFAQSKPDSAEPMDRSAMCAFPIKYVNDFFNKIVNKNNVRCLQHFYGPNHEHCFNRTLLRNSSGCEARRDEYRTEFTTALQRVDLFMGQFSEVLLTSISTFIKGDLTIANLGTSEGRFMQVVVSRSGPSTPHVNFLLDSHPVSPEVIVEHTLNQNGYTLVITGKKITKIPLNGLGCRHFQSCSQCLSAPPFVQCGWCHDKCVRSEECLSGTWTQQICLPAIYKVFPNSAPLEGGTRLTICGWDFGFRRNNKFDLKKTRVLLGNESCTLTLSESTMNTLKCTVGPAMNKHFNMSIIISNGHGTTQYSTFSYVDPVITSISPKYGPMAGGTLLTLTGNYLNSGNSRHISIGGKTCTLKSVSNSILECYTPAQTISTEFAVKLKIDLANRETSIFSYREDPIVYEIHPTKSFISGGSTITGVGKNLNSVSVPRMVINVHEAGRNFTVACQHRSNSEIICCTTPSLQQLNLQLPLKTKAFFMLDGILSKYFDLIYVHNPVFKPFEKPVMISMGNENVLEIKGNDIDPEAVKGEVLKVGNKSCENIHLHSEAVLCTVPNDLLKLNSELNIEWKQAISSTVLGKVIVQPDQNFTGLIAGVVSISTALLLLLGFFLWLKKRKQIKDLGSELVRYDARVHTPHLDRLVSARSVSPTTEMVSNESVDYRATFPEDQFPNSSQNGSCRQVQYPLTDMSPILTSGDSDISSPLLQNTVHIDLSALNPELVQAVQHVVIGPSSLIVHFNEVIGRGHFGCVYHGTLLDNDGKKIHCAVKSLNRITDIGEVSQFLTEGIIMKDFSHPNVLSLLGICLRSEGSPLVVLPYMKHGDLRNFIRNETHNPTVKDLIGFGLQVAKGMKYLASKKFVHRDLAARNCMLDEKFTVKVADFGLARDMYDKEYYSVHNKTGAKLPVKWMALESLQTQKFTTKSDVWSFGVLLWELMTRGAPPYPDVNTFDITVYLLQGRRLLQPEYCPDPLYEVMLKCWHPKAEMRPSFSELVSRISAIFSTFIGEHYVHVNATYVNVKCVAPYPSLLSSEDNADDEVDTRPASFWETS
Experimental: as §5

PKA = PKA (Homo sapiens, UniProt P17612); assay: Kinase profiling panel: PKA; type: biochemical; settings: 5 μM compound; average of triplicate
Experimental: as §5

PKBα = PKBα (Homo sapiens, UniProt P31749); assay: Kinase profiling panel: PKBα; type: biochemical; settings: read-out: % activity vs. DMSO, PKBα
PKBα, sequence (P31749 whole entry, species assumed): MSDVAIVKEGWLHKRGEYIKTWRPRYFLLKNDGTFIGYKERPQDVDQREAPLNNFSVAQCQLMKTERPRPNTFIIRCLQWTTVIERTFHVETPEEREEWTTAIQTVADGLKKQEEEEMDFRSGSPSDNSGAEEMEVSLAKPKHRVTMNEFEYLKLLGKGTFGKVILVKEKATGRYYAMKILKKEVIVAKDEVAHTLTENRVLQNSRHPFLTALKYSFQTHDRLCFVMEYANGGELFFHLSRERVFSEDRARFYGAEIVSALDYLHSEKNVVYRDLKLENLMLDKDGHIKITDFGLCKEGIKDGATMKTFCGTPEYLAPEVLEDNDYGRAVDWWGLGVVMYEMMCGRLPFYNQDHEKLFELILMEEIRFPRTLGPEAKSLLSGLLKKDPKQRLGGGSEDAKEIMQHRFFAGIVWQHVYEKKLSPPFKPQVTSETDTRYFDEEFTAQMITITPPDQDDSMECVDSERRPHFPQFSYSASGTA
Experimental: as §5

PKBβ = PKBβ (Homo sapiens, UniProt P31751); assay: Kinase profiling panel: PKBβ; type: biochemical; settings: read-out: % activity vs. DMSO, PKBβ
PKBβ, sequence (P31751 whole entry, species assumed): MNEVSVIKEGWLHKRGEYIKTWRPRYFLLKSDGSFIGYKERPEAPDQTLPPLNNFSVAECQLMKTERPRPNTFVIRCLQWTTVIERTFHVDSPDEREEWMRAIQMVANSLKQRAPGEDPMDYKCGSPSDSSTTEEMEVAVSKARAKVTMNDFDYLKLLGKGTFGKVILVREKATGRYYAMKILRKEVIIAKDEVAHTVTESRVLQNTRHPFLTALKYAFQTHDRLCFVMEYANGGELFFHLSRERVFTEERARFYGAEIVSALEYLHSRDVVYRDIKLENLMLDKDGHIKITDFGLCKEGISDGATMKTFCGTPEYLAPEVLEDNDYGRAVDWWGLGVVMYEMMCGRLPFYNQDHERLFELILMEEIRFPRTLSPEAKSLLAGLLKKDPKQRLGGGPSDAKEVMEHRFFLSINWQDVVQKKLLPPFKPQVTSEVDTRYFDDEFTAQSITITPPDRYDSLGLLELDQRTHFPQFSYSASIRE
Experimental: as §5

PKBγ = PKBγ (Homo sapiens, UniProt Q9Y243); assay: Kinase profiling panel: PKBγ; type: biochemical; settings: 5 μM compound; for remaining activity at 5 µM: average of triplicate, read-out: % activity vs. DMSO, PKBγ
PKBγ, sequence (Q9Y243 whole entry, species assumed): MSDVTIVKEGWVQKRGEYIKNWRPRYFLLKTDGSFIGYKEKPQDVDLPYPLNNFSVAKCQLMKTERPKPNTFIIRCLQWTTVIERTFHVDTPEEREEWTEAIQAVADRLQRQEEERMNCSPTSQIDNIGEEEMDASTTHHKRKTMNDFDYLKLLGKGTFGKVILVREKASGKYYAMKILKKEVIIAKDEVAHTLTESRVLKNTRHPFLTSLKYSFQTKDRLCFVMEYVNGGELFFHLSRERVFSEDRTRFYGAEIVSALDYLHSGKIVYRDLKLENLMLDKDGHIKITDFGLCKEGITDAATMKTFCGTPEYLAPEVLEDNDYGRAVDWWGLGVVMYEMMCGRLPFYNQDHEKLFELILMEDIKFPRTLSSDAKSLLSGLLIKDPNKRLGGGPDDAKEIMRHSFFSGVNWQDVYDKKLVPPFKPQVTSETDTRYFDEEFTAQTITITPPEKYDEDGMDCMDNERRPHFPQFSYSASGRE
Experimental: as §5

ROCK-I = ROCK-I (Homo sapiens, UniProt Q13464); assay: Kinase profiling panel: ROCK-I; type: biochemical; settings: 5 μM compound; average of triplicate
Experimental: as §5

SGK = target: T1, SGK (Homo sapiens, UniProt O00141); assay: Kinase profiling panel: SGK; type: biochemical; settings: 5 μM compound; for % activity vs. DMSO, SGK: average of triplicate
T1 sequence (O00141 1-431): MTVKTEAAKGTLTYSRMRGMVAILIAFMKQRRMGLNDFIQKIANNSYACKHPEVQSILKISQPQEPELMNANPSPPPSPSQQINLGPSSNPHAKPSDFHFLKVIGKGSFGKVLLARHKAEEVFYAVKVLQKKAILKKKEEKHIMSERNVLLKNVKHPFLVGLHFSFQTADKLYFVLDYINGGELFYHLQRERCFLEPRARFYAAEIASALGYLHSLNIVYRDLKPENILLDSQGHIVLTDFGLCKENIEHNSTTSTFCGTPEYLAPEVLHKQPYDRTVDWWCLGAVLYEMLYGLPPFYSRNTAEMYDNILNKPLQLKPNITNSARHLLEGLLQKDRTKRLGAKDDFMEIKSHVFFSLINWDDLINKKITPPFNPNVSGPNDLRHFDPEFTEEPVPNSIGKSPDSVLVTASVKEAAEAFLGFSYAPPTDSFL
Experimental: as §5

[1] = 5 μM compound, average of triplicate

## NCCC(=O)Nc1ccc(-n2nc(C(F)(F)F)cc2-c2ccc3ccc4ccccc4c3c2)cc1 [Compound 4, 3-amino-N-(4-(5-(phenanthren-3-yl)-3-(trifluoromethyl)-1H-pyrazol-1-yl)phenyl)-propanamide]
BCPAP cells
  IC50: 2070 ± 60 nM
TPC1 cells
  IC50: 1680 ± 320 nM
CaMKI
  % activity vs. DMSO, CaMKI: 65%
CHK1
  % activity vs. DMSO, CHK1: 82%
GSK3α
  % activity vs. DMSO, GSK3α: 133%
MEK1
  % activity vs. DMSO, MEK1: 106%
Met
  % activity vs. DMSO, Met: 89%
PKA
  % activity vs. DMSO, PKA: 110%
PKBα; [1]
  remaining activity at 5 µM: 103%
PKBβ; [1]
  remaining activity at 5 µM: 76%
PKBγ
  inhibition at 5 µM: > 50%
  remaining activity at 5 µM: 33%
ROCK-I
  % activity vs. DMSO, ROCK-I: 93%
SGK
  inhibition at 5 µM: > 50%
  % activity vs. DMSO, SGK: 27%

## CC(C)NC(=O)c1cc(-c2ccc3ccc4ccccc4c3c2)n(-c2ccc(NC(=O)CN)cc2)n1 [Compound 15, 1-(4-(2-Aminoacetamido)phenyl)-N-isopropyl-5-(phenanthren-3-yl)-1H-pyrazole-3-carboxamide]
BCPAP cells
  IC50: 1490 ± 680 nM
TPC1 cells
  IC50: 2660 ± 1050 nM
CaMKI
  % activity vs. DMSO, CaMKI: 68%
CHK1
  % activity vs. DMSO, CHK1: 89%
GSK3α
  % activity vs. DMSO, GSK3α: 118%
MEK1
  % activity vs. DMSO, MEK1: 101%
Met
  % activity vs. DMSO, Met: 77%
PKA
  % activity vs. DMSO, PKA: 119%
PKBα
  remaining activity at 5 µM: 99%
PKBβ
  remaining activity at 5 µM: 84%
PKBγ
  remaining activity at 5 µM: 56%
ROCK-I
  % activity vs. DMSO, ROCK-I: 95%
SGK
  % activity vs. DMSO, SGK: 64%
